The values below are quoted from earlier work in patent publication US10413482B2, “Delamination resistant pharmaceutical glass containers containing active pharmaceutical ingredients” (Corning Incorporated, priority 2011, dated 2019).

Usually half-life stands for the time needed for the level to fall by half in the phase considered.

The conditions of data set [1]: once-daily.
For data set [2], the system named is patients whose asthma cannot be adequately controlled with inhalable glucocorticoids. The note with it: in vivo.
Assay in data set [3]: not given
This is another data set of the same source.

For data set [4], the system named is patients with moderate to severe ulcerative colitis. The note with it: in vivo.
The conditions of data set [5]: for duration of action: after injection.
Data set [6] deals with patients with acute coronary syndrome (ACS). The note with it: in vivo.
For data set [7], the system named is adults with late-onset LAL Deficiency.

On to lixisenatide, for which, in data set [1], the tolerability result is given as “well-tolerated”. Also, the glycemic control entry in data set [1] (one-step dose increase, single maintenance dose) is “significantly improved glycemic control”. Regarding “lebrikizumab: humanized monoclonal antibody against interleukin-13 (IL-13)”, the symptoms of asthma result in data set [2] is “significantly decrease the symptoms of asthma”. For relaxin, the shelf-life result (approximately pH 5, 5° C., acceptable reduction of 10% in the HPLC main peak area) is on record as “at least 2 years”. Regarding `[Cl][223Ra][Cl]` [Radium-223, Radium-223 dichloride], the half-life in data set [3] is 11.4 days.

As to “Vedolizumab: humanized monoclonal antibody targeting α4β7 integrin”, the “safety and clinical remission” value in data set [4] was “safe and effective for inducing and maintaining clinical remission”. In the case of “insulin regular: formulation of recombinant insulin structurally identical to the insulin produced by the human pancreas”, the duration of action entry in data set [5] is given as “approximately 8 hours”. Besides, in data set [5] (after subcutaneous administration), the “onset of pharmacologic effect” value is “approximately one-half”. Consider `COC(=O)[C@H](Cc1cccc(C(=N)N)c1)[C@@H](C)NC(=O)c1ccc(-c2cc[n+]([O-])cc2)cc1` (mixture of isomers) [Otamixaban, reference compound], for which the major coronary complications result in data set [6] was “reduce major coronary complications”. Also, the “degradation during sterilization and storage” value (formulations at pH between 3 and 5) was “decreased otamixaban degradation during sterilization and storage”. insulin degludec: the duration of action result in data set [5] is on record as “more than 24 hours”.

Consider Insulin detemir, for which, in data set [5], the duration of action entry is “up to 24 hours”.

B1: SBC-102: recombinant form of the human LAL enzyme (protein, UniProt P38571 77-399, looked up)
Lysosomal acid …: GPKPVVFLQHGLLADSSNWVTNLANSSLGFILADAGFDVWMGNSRGNTWSRKHKTLSVSQDEFWAFSYDEMAKYDLPASINFILNKTGQEQVYYVGHSQGTTIGFIAFSQIPELAKRIKMFFALGPVASVAFCTSPMAKLGRLPDHLIKDLFGDKEFLPQSAFLKWLGTHVCTHVILKELCGNLCFLLCGFNERNLNMSRVDVYTTHSPAGTSVQNMLHWSQAVKFQKFQAFDWGSSAKNYFHYNQSYPPTYNVKDMLVPTAVWSGGHDWLADVYDVNILLTQITNLVFHESIPEWEHLDFIWGLDAPWRLYNKIINLMRKYQ
For the molecule B1, in data set [7] (same time period), the LDL result is recorded as “a reduction in LDL was also observed”. In data set [7] (versus original baseline, p<0.05), the “total cholesterol, HDL cholesterol, and triglycerides” value is reported as “significantly improved”. Also, the liver transaminase levels result in data set [7] (weekly then every other week infusions) is “sustained impact of SBC-102 on reducing liver transaminase levels”.
